The target of assay [1] is recombinant PDI (Homo sapiens, UniProt P07237). The experiment in a line: PDI activity assay (insulin transhydrogenase / insulin turbidity assay). In kind it is biochemical. The following applies: 25 μM, 15 min incubation. Here is the method: PDI activity was assessed using an insulin transhydrogenase assay. Bovine insulin (1 mg/mL) in sodium phosphate buffer, pH 7.0, containing 2 mM EDTA, was incubated with 1.4 μM recombinant PDI in the presence of vehicle (1 % DMSO) or various concentrations of isoquercetin (30 or 60 μM), EN460, I2, I26, or I29 (1, 5, or 25 μM) for 15 min. The turbidimetric assay of insulin disulfide reduction by PDI was initiated by adding 1 mM dithiothreitol, and the reaction was monitored at 650 nm for 80 min. PDI activity is presented as a percentage of the vehicle control.
recombinant PDI, sequence (P07237 18-508, species assumed): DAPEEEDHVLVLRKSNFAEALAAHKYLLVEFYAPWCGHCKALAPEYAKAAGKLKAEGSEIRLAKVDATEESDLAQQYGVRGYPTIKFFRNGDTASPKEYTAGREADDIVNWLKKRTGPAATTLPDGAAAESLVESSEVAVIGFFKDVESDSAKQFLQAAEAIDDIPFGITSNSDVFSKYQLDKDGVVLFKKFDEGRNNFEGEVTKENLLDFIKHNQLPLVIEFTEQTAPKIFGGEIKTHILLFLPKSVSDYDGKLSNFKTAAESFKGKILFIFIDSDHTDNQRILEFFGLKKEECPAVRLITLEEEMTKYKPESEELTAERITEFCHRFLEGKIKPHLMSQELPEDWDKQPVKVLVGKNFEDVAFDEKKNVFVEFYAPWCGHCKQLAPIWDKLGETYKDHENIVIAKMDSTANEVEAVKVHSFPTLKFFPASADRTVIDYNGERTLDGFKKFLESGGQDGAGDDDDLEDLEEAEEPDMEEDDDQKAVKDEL

Assay [2] deals with T1, Human monoamine oxidase A (Mao-A) (Homo sapiens, UniProt P21397).
T1 construct: purchased Sigma-Aldrich
T1 sequence (P21397 1-527): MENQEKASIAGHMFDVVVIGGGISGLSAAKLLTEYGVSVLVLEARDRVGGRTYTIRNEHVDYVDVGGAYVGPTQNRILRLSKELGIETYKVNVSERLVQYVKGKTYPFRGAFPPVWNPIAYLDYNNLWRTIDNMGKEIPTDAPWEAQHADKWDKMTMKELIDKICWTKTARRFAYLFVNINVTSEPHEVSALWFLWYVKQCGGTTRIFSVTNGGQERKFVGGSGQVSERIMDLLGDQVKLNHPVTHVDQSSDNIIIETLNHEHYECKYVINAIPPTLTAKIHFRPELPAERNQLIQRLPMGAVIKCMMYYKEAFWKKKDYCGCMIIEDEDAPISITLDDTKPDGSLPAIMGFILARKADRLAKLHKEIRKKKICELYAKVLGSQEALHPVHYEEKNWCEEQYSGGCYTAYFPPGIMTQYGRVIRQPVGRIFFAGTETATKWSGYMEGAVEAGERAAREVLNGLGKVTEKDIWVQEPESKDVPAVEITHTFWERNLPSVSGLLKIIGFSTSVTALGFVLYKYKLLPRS
The experiment in a line: Mao-A activity assay (commercial kit, p-tyramine, H2O2 fluorimetry). In kind it is biochemical. The following applies: 25 μM, 10 min incubation. The procedure:
Mao-A activity was measured using a commercial assay kit according to the manufacturer’s instructions. Mao-A (0.837 μM) was incubated with vehicle (1 % DMSO), Clorgyline (50 μM), or various concentrations (1, 5, or 25 μM) of EN460, I2, I26, or I29 for 10 min. Mao-A catalyzes the oxidative deamination of p-tyramine, generating H2O2, which was quantified fluorimetrically (λex= 530; λem= 585 nm). Mao-A activity is presented as a percentage of the vehicle control.

In assay [3] the target is T2, ERO1 in WT and SEPN1 KO myotubes (Mus musculus, UniProt Q8R180).
T2 construct: endogenous in cells; host or cells: primary myotubes from WT and SEPN1 KO C57BL/6 mice
T2 sequence (Q8R180 24-464): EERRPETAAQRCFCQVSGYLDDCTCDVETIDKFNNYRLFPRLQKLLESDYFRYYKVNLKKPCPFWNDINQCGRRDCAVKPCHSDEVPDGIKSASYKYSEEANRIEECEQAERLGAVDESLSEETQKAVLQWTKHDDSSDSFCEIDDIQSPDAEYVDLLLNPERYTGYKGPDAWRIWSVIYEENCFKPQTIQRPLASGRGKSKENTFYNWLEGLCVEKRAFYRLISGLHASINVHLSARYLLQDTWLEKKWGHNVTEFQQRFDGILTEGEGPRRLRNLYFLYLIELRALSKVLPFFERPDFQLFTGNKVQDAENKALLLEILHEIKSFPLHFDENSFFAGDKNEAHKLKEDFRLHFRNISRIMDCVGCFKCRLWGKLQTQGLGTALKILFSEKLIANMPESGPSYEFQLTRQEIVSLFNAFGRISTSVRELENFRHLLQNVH
The experiment in a line: ERO1 redox state by non-reducing immunoblot in WT and SEPN1 KO myotubes. In kind it is cell-based, mice. The following applies: 3 h treatment. Here is the method:
Muscle stem cells were isolated from muscles of 1-month-old wild-type (WT) and SEPN1 knockout (KO) mice using a tissue dissociation protocol with the gentleMACS™ Octo Dissociator with Heaters (Miltenyi Biotec, Bergisch Gladbach, Germany), followed by magnetic depletion. To generate myotubes, cells were cultured on Matrigel-coated Ibidi μ-Slide 8 well chambers (Cat. No. 80826, Ibidi GmbH, Gräfelfing, Germany) in DMEM (EuroClone, Pero, Milan, Italy) supplemented with 20 % fetal bovine serum (EuroClone), 3 % chick embryo extract (Cat. 11485015, Fisher Scientific SAS), 10 ng/mL basic fibroblast growth factor (Cat. 13256029, Life Technologies Europe BV), 1 % GlutaMAX (Gibco; Thermo Fisher Scientific, Waltham, MA, USA), and 1 % penicillin-streptomycin (EuroClone).
After 48 h of proliferation, cells were cultured for an additional 2 days in medium containing 2 % horse serum (EuroClone) to induce differentiation, then harvested for analysis. For ERO1 redox state, cells were treated for 3 h with either EN460 or I29, harvested and followed by a non-reducing ERO1 Immunoblot.

For the molecule `O=C1/C(=C/c2ccc(-c3ccccc3)o2)C(C(F)(F)F)=NN1c1ccccc1F` [I29], the “PDI activity (percentage of the vehicle control)” value in assay [1] is “inhibited PDI activity”. For the same molecule, the “Mao-A activity (percentage of the vehicle control)” value in assay [2] is listed as “inhibited Mao-A activity”. For the same molecule, in assay [3], the “reduced state of ERO1 compared with EN460” value was “more effective than EN460”.
Consider `O=C(O)c1cc(N2N=C(C(F)(F)F)/C(=C\c3ccc(-c4ccccc4)o3)C2=O)ccc1Cl` [EN460, reference compound], for which the “PDI activity (percentage of the vehicle control)” value in assay [1] is recorded as “inhibited PDI activity”. The “Mao-A activity (percentage of the vehicle control)” value in assay [2] is given as “inhibited Mao-A activity”.

Values taken from article PMC13198932, “Pyrazolone-based ERO1 inhibitors in ERO1-driven triple-negative breast cancer and SEPN1-related myopathy: Structure–activity relationship and therapeutic potential” (Pharmacological research, 2025).
